Experimental findings from PMC9389255 (Heliyon, 2022) are described below.

Data set [1] concerns α-Glucosidase from Saccharomyces cerevisiae. The data set can be described thus: Inhibitory kinetic analysis. It counts as biochemical. The following applies: Lineweaver-Burk plots.
The test system is the same in data set [2]. In words: In vitro inhibition assay for α-glucosidase activity. It counts as biochemical.
Data set [3] is described as follows: Precipitation of DMSO-dissolved compounds upon mixing in phosphate buffer. It is filed as physicochemical.
Where [4] appears, read: printed in the column IC50 against α-amylase.
[5] abbreviates: printed in the column IC50 against α-glucosidase.

SMILES strings stand for the structures.

For `O=c1c(O)c(-c2ccc(O)c(O)c2)oc2cc(O)cc(O)c12` [Quercetin], in data set [1], the “inhibition pattern against α-glucosidase” value is “mixed inhibition patterns”.
Regarding `O=c1cc(-c2ccc(O)c(O)c2)oc2cc(O)cc(O)c12` [Luteolin], in data set [1], the “inhibition pattern against α-glucosidase” value is reported as “mixed inhibition patterns”.
On to `O=c1c(O)c(-c2ccc(O)cc2)oc2cc(O)cc(O)c12` [Kaempferol], for which the “inhibitory activity on α-glucosidase” value in data set [2] (at ≤80 μM) was “no inhibitory activity”. Besides, the “Precipitated at (in vial)” value in data set [3] (setting [4]) and in data set [3] (setting [5]) was “Precipitated at 80 μM (in vial)” each time.
Consider `O=c1cc(-c2ccccc2)oc2cc(O)cc(O)c12` [Chrysin], for which the “inhibitory activity on α-glucosidase” value in data set [2] (at ≤400 μM) is “no inhibitory activity”. Besides, the “Precipitated at (in vial)” value in data set [3] (setting [4]) and in data set [3] (setting [5]) was “Precipitated at 400 μM (in vial)” in each case.
As to `C[C@H]1O[C@H](O[C@H]2[C@H](O)[C@@H](O)[C@@H](O[C@H]3[C@H](O)[C@@H](O)C(O)O[C@@H]3CO)O[C@@H]2CO)[C@H](O)[C@@H](O)[C@@H]1N[C@H]1C=C(CO)[C@@H](O)[C@H](O)[C@H]1O` (stereo partly shown) [Acarbose, reference compound], the “inhibition pattern against α-glucosidase” value in data set [1] was “competitive inhibition pattern”.
Consider `O=c1cc(-c2ccc(O)cc2)oc2cc(O)cc(O)c12` [Apigenin], for which the “inhibitory activity on α-glucosidase” value in data set [2] (at ≤1000 μM) was “no inhibitory activity”. Also, the “Precipitated at (in vial)” value in data set [3] (setting [4]) and in data set [3] (setting [5]) was “Precipitated at 1000 μM (in vial)” in each case.
Consider `O=c1c(O)c(-c2cc(O)c(O)c(O)c2)oc2cc(O)cc(O)c12` [Myricetin], for which the “inhibition pattern against α-glucosidase” value in data set [1] is “mixed inhibition patterns”.
